Assay results: patent US7579018B2, “Microbiological control in aqueous systems” (Albemarle Corporation, priority 2000, dated 2009)

Assays:
[1] = “free chlorine” (Hach Method 8021) and “total chlorine” (Hach Method 8167) in dosed simulated cooling water, Example 1; type: physicochemical; conditions: simulated cooling water pH 9.1, 38° C.
Excerpt: The standard tests for determination of “free chlorine” and “total chlorine” are based on classical test procedures devised by Palin in 1974. See A. T. Palin, “Analytical Control of Water Disinfection With Special Reference to Differential DPD Methods For Chlorine, Chlorine Dioxide, Bromine, Iodine and Ozone”, J. Inst. Water Eng., 1974, 28, 139. While there are various modernized versions of the Palin procedures, the version of the tests for “free chlorine” and “total chlorine” used and to be used as the standard in connection with this invention, are fully described in Hach Water Analysis Handbook, 3rd edition, copyright 1997. The procedure for “free chlorine” is identified in that publication as Method 8021 appearing on page 335, whereas the procedure for “total chlorine” is Method 8167 appearing at page 379. Briefly, the “free chlorine” test involves introducing to the halogenated water a powder comprising DPD indicator powder and a buffer. “Free chlorine” present in the water reacts with the DPD indicator to produce a red to pink coloration. The intensity of the coloration depends upon the concentration of “free chlorine” species present in the sample. This intensity is measured by a calorimeter calibrated to transform the intensity reading into a “free chlorine” value in terms of mg/L Cl2. Similarly, the “total chlorine” test also involves use of DPD indicator and buffer. In this case, KI is present with the DPD and buffer whereby the halogen species present, including nitrogen-combined halogen, reacts with KI to yield iodine species which turn the DPD indicator to red/pink. The intensity of this coloration depends upon the sum of the “free chlorine” species and all other halogen species present in the sample. Consequently, this coloration is transformed by the colorimeter into a “total chlorine” value expressed as mg/L Cl2.
DBDAH and BCDMH Test Procedure • 1. To determine the amount of species present in the water which respond to the “free chlorine” and “total chlorine” tests, the water sample should be analyzed within a few minutes of being taken, and preferably immediately upon being taken. • 2. Hach Method 8021 for testing the amount of species present in the water sample which respond to the “free chlorine” test involves use of the Hach Model DR 2010 calorimeter. The stored program number for chlorine determinations is recalled by keying in “80” on the keyboard, followed by setting the absorbance wavelength to 530 nm by rotating the dial on the side of the instrument. Two identical sample cells are filled to the 10 mL mark with the water under investigation. One of the cells is arbitrarily chosen to be the blank. Using the 10 mL cell riser, this is admitted to the sample compartment of the Hach Model DR 2010, and the shield is closed to prevent stray light effects. Then the ZERO key is depressed. After a few seconds, the display registers 0.00 mg/L Cl2. To second cell, the contents of a DPD Free Chlorine Powder Pillow are added. This is shaken for 10-20 seconds to mix, as the development of a pink-red color indicates the presence of species in the water which respond positively to the DPD test reagent. Within one minute of adding the DPD “free chlorine” reagent to the 10 mL of water in the sample cell, the blank cell used to zero the instrument is removed from the cell compartment of the Hach Model DR 2010 and replaced with the test sample to which the DPD “free chlorine” test reagent was added. The light shield is then closed as was done for the blank, and the READ key is depressed. The result, in mg/L Cl2 is shown on the display within a few seconds. This is the “free chlorine” level of the water sample under investigation. • 3. Hach Method 8167 for testing the amount of species present in the water sample which respond to the “total chlorine” test involves use of the Hach Model DR 2010 calorimeter. […]

[2] = Iodometric titration of clear saturated stock solutions; type: physicochemical; conditions: 1 gram powder slurried in 100 mL deionized water, stirred 20 minutes, filtered
Protocol: Stock solutions of DBDMH and of BCDMH were prepared by slurrying 1 gram of the respective powders in 100 mL of deionized water. After stirring for 20 minutes, the insolubles were filtered to yield clear saturated stock solutions of DBDMH and BCDMH, respectively. Iodometric titration of the stock solutions using the potassium iodide-sodium thiosulfate method indicated the DBDMH solution contained 580 mg/L (as total chlorine), and the BCDMH solution contained 1100 mg/L (as total chlorine).

[3] = tested on: heterotrophic bacteria; experiment: Cooling tower field trial, Example 2: heterotrophic bacteria plate counts
Excerpt: The effectiveness of DBDMH and of BCDMH in microbiological control in cooling tower water was investigated in comparative tests. The cooling tower consisted of two 500-ton units in a crossflow design. The total system-contained volume was 14,000 gallons, and the tower contained medium efficiency film fill. Water from the tower cooled the coils of two 300-ton air conditioners (chillers). The tower typically operated at a pH of about 9.1 and 4 cycles of concentration. Blowdown was controlled by conductivity. Make-up water consisted of softened city water and which was of good quality. The make-up water was very low in calcium (<10 mg/L) but high in pH (8.7). The alkalinity was 145 mg/L (as CaCO3), and the silica level was 28 mg/L. The tower employed a conventional polyphosphate/molybdate/phosphonate program to provide corrosion and deposit control.
The BCDMH (20 lbs) was introduced to the water using 20-gram, 1-inch tablets charged to a solid halogen feeder (Neptune model BT-40, Neptune Chemical Pump Co., Inc., Lansdale, Pa.). Before each dose, the cooling tower water was sampled and enumerated for heterotrophic bacteria plate counts. Then the tower was slug dosed three times a week with BCDMH. Slug dosing was accomplished by diverting through the feeder containing the tablets a sidestream of the recirculating water for about 1 to 5 hours until a “free chlorine” dose of about 0.5 mg/L (as “free chlorine”) was obtained. The “total chlorine” dose was measured at the same time. After each dose the cooling water was sampled and enumerated for heterotrophic bacteria plate counts. As necessary, the feeder was replenished with more BCDMH tablets.
For example, before the biocide dose the bacteria levels in the bulk water ranged from 10^5 to 10^4 CFUs/mL. After the biocide dose the bacteria levels in the bulk water were reduced to 10^4 to 10^3.
After emptying the feeder of BCDMH tablets, 20 lbs of DBDMH granules was charged into the feeder. Thereupon the same procedure as described above for the BCDMH was carried out except for the fact that is was unnecessary to add any additional DBDMH to the feeder during the 30-day test period. In fact, the total weight of DBDMH consumed during the test was only 7 lbs.

[4] = Storage of tablets at 50° C. for 30 days, titration of active bromine, Example 24; type: physicochemical
Excerpt: 1,3-Dibromo-5,5-dimethylhydantoin was blended with micronized polyethylene wax (MPP-611) such that the blend contained 3 wt % of the wax. A sample of the blend (5 g) was introduced to a die made from Hastelloy® C alloy, and compacted to a pressure of 5000 psi. Three more samples (5 g each) were compacted in the same manner, and each time a single tablet was extracted from the die after the pressure had been released. In each case, before filling the die, its interior surfaces were lightly dusted with micronized polypropylene wax to serve as a lubricant. The tablets were manually broken into two equally-sized pieces. One half of each tablet was crushed into a powder with a mortar and pestle, and the powder was titrated to determine its wt % of active bromine. The other half of each tablet was placed in a sealed glass vial and placed in an oven at 50° C. After 30 days, the samples were removed from the oven, ground up, and titrated to determine its wt % of active bromine. For comparative purposes, a control sample of commercially produced 1,3-dibromo-5,5-dimethylhydantoin having an average particle size of about 64.5μ (containing no micronized polyethylene wax) was subjected to the same operations.
Table 16 lists the results obtained for four samples of 1,3-dibromo-5,5-dimethylhydantoin/3 wt % micronized polyethylene wax blends, along with the control sample containing no additive.

[5] = dosed to 1 mg/L as total chlorine, Time 0 hr
[6] = Time 0.5 hr, percentage of Time 0 value
[7] = Time 1 hr, percentage of Time 0 value
[8] = Time 1.5 hr, percentage of Time 0 value
[9] = Time 2 hr, percentage of Time 0 value
[10] = Time 3 hr, percentage of Time 0 value
[11] = Time 4 hr, percentage of Time 0 value
[12] = Time 5 hr, percentage of Time 0 value
[13] = Time 6 hr, percentage of Time 0 value

For `CC1(C)C(=O)N(Cl)C(=O)N1Br` [BCDMH, N,N′-bromochloro-5,5-dimethylhydantoin, reference compound], the “Free Cl2” value [1, 5] was 23.1, the “Total Cl2” value [1, 5] was 100 and the “% hydrolysis to Free Cl2” value ([1]; Time 0 hr) was 23.1%. For the same compound, the “% hydrolysis to Free Cl2” value ([1]; Time 0.5 hr) was 24.7%, the “Free Cl2” value [1, 6] was 25.6% and the “Total Cl2” value [1, 6] was 104%. For the same compound, the “% hydrolysis to Free Cl2” value ([1]; Time 1 hr) was 23.1%, the “Free Cl2” value [1, 7] was 23.1% and the “Total Cl2” value [1, 7] was 100%. For the same compound, the “% hydrolysis to Free Cl2” value ([1]; Time 1.5 hr) was 19.4%, the “Free Cl2” value [1, 8] was 17.9% and the “Total Cl2” value [1, 8] was 92.3%. For the same compound, the “% hydrolysis to Free Cl2” value ([1]; Time 2 hr) was 18.8%, the “Free Cl2” value [1, 9] was 16.6% and the “Total Cl2” value [1, 9] was 88.5%. For the same compound, the “% hydrolysis to Free Cl2” value ([1]; Time 3 hr) was 18.8%, the “Free Cl2” value [1, 10] was 16.6% and the “Total Cl2” value [1, 10] was 88.5%. The “% hydrolysis to Free Cl2” value ([1]; Time 4 hr) was 38.7%, the “Free Cl2” value [1, 11] was 30.7% and the “Total Cl2” value [1, 11] was 79.5%. For the same compound, the “% hydrolysis to Free Cl2” value ([1]; Time 5 hr) was 20%, the “Free Cl2” value [1, 12] was 15.4% and the “Total Cl2” value [1, 12] was 76.9%. For the same compound, the “% hydrolysis to Free Cl2” value ([1]; Time 6 hr) was 14.3%, the “Free Cl2” value [1, 13] was 10.2% and the “Total Cl2” value [1, 13] was 71%. For the same compound, the “halogen content of saturated stock solution (as total chlorine)” value [2] was 1100 mg/L, the “average reduction of heterotrophic bacterial levels in the bulk water” value ([3]; biocide dose 0.5 mg/L “free chlorine”) was 1 order of magnitude and the “bacteria levels in the bulk water after the biocide dose” value ([3]; biocide dose 0.5 mg/L “free chlorine”, before dose 10^5 to 10^4 CFUs/mL) was 10^4 to 10^3 CFUs/mL. The Bacteria reduction ([3]; slug dose 3 times/week, 0.5 ppm free Cl2, cooling tower water) was 1.5-2 logs.
In the case of `CC1(C)C(=O)N(Br)C(=O)N1Br` [Control, 1,3-dibromo-5,5-dimethylhydantoin], the “Wt % Active Bromine, After 30 days” value ([4]; sealed glass vial in oven at 50° C., 30 days) is reported as 55.2 Wt % and the “Wt % Active Bromine, Initial” value ([4]; tablet half crushed and titrated before storage) is reported as 55.3 Wt %.
